The source of these data is article PMC7878787 (Scientific Reports, 2021).

One data set deals with T1, GRPR (Mus musculus, UniProt P21729).
T1 construct: Mice with GRPR-expressing PC-3 xenografts (implanted 21 d before the experiment) were used for all in vivo studies; from tissue; host or cells: PC-3 xenograft tumors in female Balb/c nu/nu mice
Nature of the data set: In vivo specificity test (co-injection of non-labeled peptide). Further details: species or system Balb/c nu/nu mice. Particulars: 3 h pi, co-injection of 10 nmol non-labeled NOTA-PEG2-RM26, p < 0.002. As for the experimental part: For the in vivo specificity test, mice in the blocking group were co-injected with 10 nmol of non-labeled NOTA-PEG2-RM26 and sacrificed 3 h pi and samples were collected according to the protocol described above.

Data set [1] is described as follows: Biodistribution in mice bearing PC-3 xenografts. The class given is in vivo, Balb/c nu/nu mice. Particulars: female, Balb/c nu/nu, mouse, iv, total radioactivity, 3 h pi, 40–50 pmol iv, female Balb/c nu/nu mice with PC-3 xenografts, average ± SD, n = 3–4. As for the experimental part:
(§1) Mice were sacrificed 3 h and 22 h pi by intraperitoneal injection of a lethal dose of Ketalar-Rompun solution (10 mg/mL Ketaminol (Intervet) and 1 mg/mL Rompun (Bayer); 20 μL solution/gram of body weight). Tumors were collected as well as samples of blood, lung, liver, spleen, pancreas, stomach, small intestine, kidneys, muscle, and bone. Gastrointestinal (GI) tract and carcass were also collected. Samples were weighed, and measured for activity content in the automated gamma counter. Corrections for background, spill-over and decay were performed for all measurements.
(§2) Biodistribution of [^68Ga]Ga-NOTA-PEG2-RM26 3 h pi was included for comparison. Mice were therefore injected with 40–50 pmol (250 kBq) ^68Ga-NOTA-PEG2-RM26, euthanized 3 h pi and samples were collected according to the protocol described above.

A further data set concerns PC-3 cells. Description: Cellular processing (membrane-bound vs internalized activity). It counts as cell-based, human. Particulars: 2 nM, continuous incubation 24 h, 37 °C, n = 3. As for the experimental part:
At pre-determined time points (1 h, 2 h, 4 h, 24 h) cells were incubated with 0.2 M glycine buffer (with 0.15 M NaCl, 4 M Urea, pH 2) for 5 min on ice to collect the membrane-bound activity. Thereafter, cells were incubated at 37 °C for 30 min with 1 M NaOH and collected. Activity content in those samples was considered internalized activity.

Data set [2] is described as follows: Analysis of blood metabolites (radio-HPLC of plasma). It counts as in vivo. Particulars: 5 min pi, NMRI mice; for radiometal associated with intact peptide in blood plasma: 1.5 nmol (6.75–7.3 MBq). Here is the method: NMRI Mice were injected with 1.5 nmol (6.75–7.3 MBq) [^68Ga]Ga-NOTA-PEG2-RM26 and sacrificed 5 min pi by cervical dislocation. Immediately after blood was collected by heart puncture into a pre-chilled heparinized Eppendorf tube. Blood samples were centrifuged (10000RCF, 10 min at 4 °C), plasma was collected and mixed with equal amount of ice cold acetonitrile. The mixture was centrifuged (15,000 RCF, 10 min, 4 °C), the supernatant was collected and sterile filtered with a 0.2 µm PTFE syringe filter. The filtrate was analyzed on HPLC according to the method described above.

A further data set has as its system PC-3 xenografts. Description: Biodistribution in mice bearing PC-3 xenografts. The class given is in vivo, Balb/c nu/nu mice. Here is the method: as §1, §2

Like-named read-outs stand apart in the source and are kept apart here.

T1 sequence (P21729 whole entry): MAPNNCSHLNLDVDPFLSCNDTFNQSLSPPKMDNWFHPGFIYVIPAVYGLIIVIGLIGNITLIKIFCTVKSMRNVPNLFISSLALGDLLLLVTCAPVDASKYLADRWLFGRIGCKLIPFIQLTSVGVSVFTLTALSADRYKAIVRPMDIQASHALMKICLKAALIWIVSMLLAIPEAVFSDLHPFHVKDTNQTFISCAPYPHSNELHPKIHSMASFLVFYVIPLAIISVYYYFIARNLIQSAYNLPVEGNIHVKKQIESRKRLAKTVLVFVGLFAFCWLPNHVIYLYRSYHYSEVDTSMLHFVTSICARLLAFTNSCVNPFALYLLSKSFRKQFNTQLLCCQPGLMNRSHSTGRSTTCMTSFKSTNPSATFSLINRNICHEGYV

As for `CC(C)C[C@H](NC(=O)C[C@H](O)[C@H](CC(C)C)NC(=O)[C@H](Cc1c[nH]cn1)NC(=O)CNC(=O)[C@@H](NC(=O)[C@H](C)NC(=O)[C@H](Cc1c[nH]c2ccccc12)NC(=O)[C@H](CCC(N)=O)NC(=O)[C@@H](Cc1ccccc1)NC(=O)COCCOCCNC(=O)CN1CCN(CC(=O)O)CCN(CC(=O)O)CC1)C(C)C)C(N)=O` [[^66Ga]Ga-NOTA-PEG2-RM26, metal not drawn], the “uptake in pancreas, blocked vs non-blocked” value on GRPR was “significant decrease”. Further, the tissue uptake at 3 h in data set [1] (bone, read-out: Uptake, Bone) was 0.5 ± 0.3 %ID/g; in data set [1] (kidney, read-out: Uptake, Kidney), 1.7 ± 0.4 %ID/g; in data set [1] (liver, read-out: Uptake, Liver) it was 0.28 ± 0.06 %ID/g; in data set [1] (lung, read-out: Uptake, Lung) it was 0.5 ± 0.4 %ID/g; in data set [1] (pancreas, read-out: Uptake, Pancreas) it was 3.4 ± 0.7 %ID/g; in data set [1] (stomach, read-out: Uptake, Stomach) it was 1.9 ± 0.4 %ID/g. Also, the tissue uptake at 3 h turned out to be 14 ± 1 %ID/g in data set [1] (tumor (PC-3 xenograft), read-out: Uptake, Tumor) and 0.15 ± 0.06 %ID/g in data set [1] (whole blood, read-out: Uptake, Blood). The “fraction of internalized activity, of cell-associated activity” value in the data set on PC-3 cells is 17%.
As for `CC(C)C[C@H](NC(=O)C[C@H](O)[C@H](CC(C)C)NC(=O)[C@H](Cc1c[nH]cn1)NC(=O)CNC(=O)[C@@H](NC(=O)[C@H](C)NC(=O)[C@H](Cc1c[nH]c2ccccc12)NC(=O)[C@H](CCC(N)=O)NC(=O)[C@@H](Cc1ccccc1)NC(=O)COCCOCCNC(=O)CN1CCN(CC(=O)O)CCN(CC(=O)O)CC1)C(C)C)C(N)=O` [[^68Ga]Ga-NOTA-PEG2-RM26, metal not drawn], in data set [2], the “free gallium, share of activity in blood plasma” value is 6% and the “radiometal associated with intact peptide in blood plasma” value is “up to 57%”. The “radiometal associated with intact peptide in blood plasma” value in data set [2] (listed as gallium labeled NOTA-PEG2-RM26) is “up to 60%”.
Turning to `CC(C)C[C@H](NC(=O)C[C@H](O)[C@H](CC(C)C)NC(=O)[C@H](Cc1c[nH]cn1)NC(=O)CNC(=O)[C@@H](NC(=O)[C@H](C)NC(=O)[C@H](Cc1c[nH]c2ccccc12)NC(=O)[C@H](CCC(N)=O)NC(=O)[C@@H](Cc1ccccc1)NC(=O)COCCOCCNC(=O)CN1CCN(CC(=O)O)CCN(CC(=O)O)CC1)C(C)C)C(N)=O` [[^66Ga]Ga-NOTA-PEG2-RM26] [metal not drawn], in the data set on PC-3 xenografts (3 to 22 h pi), the “change of uptake in bone during the observation period” value is on record as “increased”. The “activity retained in tumors from 3 to 22 h pi” value in the data set on PC-3 xenografts (PC-3 xenografts) is recorded as “approximately 50%”. Further, the “change of uptake in GRPR-expressing pancreas from 3 to 22 h pi” value in the data set with PC-3 xenografts (p < 0.004) is listed as “decreased significantly”.
